Assay results from patent publication US4205170A, “Propionic acid derivatives” (priority 1976, dated 1980).
Where two headings read alike, the source gives them in different places.

System: edema in the hind paws (carrageenan)
Assay: carrageenan-induced hind paw edema, oral administration
Type: in vivo, male Wistar rats
Settings: Rattus norvegicus; for inhibition in vivo at 5 mg/kg: 5 mg/kg orally; for inhibition in vivo at 10 mg/kg: 10 mg/kg orally; for inhibition in vivo at 1 mg/kg: 1 mg/kg orally
Protocol: That is, male Wistar rats weighing about 100 g, one group consisting of 5 to 7 animals, were given orally the compounds according to the present invention and then edema was induced in the hind paws by subcutaneous injections of 0.1 ml of 1% carrageenan 1 hour after the administration of the test compounds, and the volumes of the hind paws were measured by a volume differential meter.

[1] = 1 hr, read-out: Inhibition (%) 1 hr
[2] = 2 hr, read-out: Inhibition (%) 2 hr
[3] = 3 hr, read-out: Inhibition (%) 3 hr
[4] = 4 hr, read-out: Inhibition (%) 4 hr
[5] = 5 hr, read-out: Inhibition (%) 5 hr
[6] = 6 hr, read-out: Inhibition (%) 6 hr

SMILES	inhibition in vivo at 5 mg/kg [1]	inhibition in vivo at 5 mg/kg [2]	inhibition in vivo at 5 mg/kg [3]	inhibition in vivo at 5 mg/kg [4]	inhibition in vivo at 5 mg/kg [5]	inhibition in vivo at 5 mg/kg [6]	inhibition in vivo at 10 mg/kg [1]	inhibition in vivo at 10 mg/kg [2]	inhibition in vivo at 10 mg/kg [3]	inhibition in vivo at 10 mg/kg [4]	inhibition in vivo at 10 mg/kg [5]	inhibition in vivo at 10 mg/kg [6]	inhibition in vivo at 1 mg/kg [1]	inhibition in vivo at 1 mg/kg [2]	inhibition in vivo at 1 mg/kg [3]	inhibition in vivo at 1 mg/kg [4]	inhibition in vivo at 1 mg/kg [5]	inhibition in vivo at 1 mg/kg [6]
CC(C(N)=O)c1ccc2c(c1)CCc1cccnc1S2 (centres unmarked) [Compound 23, 2-(5,6-dihydrobenzo[b]pyrido[3,2-f]thiepin-8-yl)-propionamide]	22.6%	53.8%	60.9%	64.1%	51.8%	37.5%	–	–	–	–	–	–	–	–	–	–	–	–
CC(C(=O)O)c1ccc2c(c1)Sc1ncccc1CC2 (centres unmarked) [Compound 24, 2-(5,6-dihydrobenzo[b]pyrido[3,2-f]thiepin-9yl)-propionic acid]	–	–	–	–	–	–	19.6%	52.1%	49.9%	38.3%	28.2%	27.2%	–	–	–	–	–	–
CCOC(=O)C(C)c1ccc2c(c1)Sc1ncccc1CC2 (centres unmarked) [Compound 25, Ethyl 2-(5,6-dihydrobenzo[b]pyrido[3,2-f]thiepin-9-yl)-propionate]	–	–	–	–	–	–	42.8%	57.7%	61%	52.7%	33.4%	29.2%	–	–	–	–	–	–
CC(C(=O)O)c1ccc2c(c1)C(=O)Cc1cccnc1O2 (centres unmarked) [Compound 26, 2-(5,6-dihydro-6-oxobenzo[b]pyrido[3,2-f]oxepin-8-yl)-propionic acid]	55.7%	52.6%	40%	32.2%	29.7%	24%	–	–	–	–	–	–	–	–	–	–	–	–
CC(C(=O)O)c1ccc2c(c1)CCc1cccnc1O2 (centres unmarked) [Compound 27, 2-(5,6-dihydrobenzo[b]pyrido[3,2-f]oxepin-8yl)-propionic acid]	68%	83.5%	79%	81%	70.6%	61.5%	–	–	–	–	–	–	–	–	–	–	–	–
CCOC(=O)C(C)c1ccc2c(c1)CCc1cccnc1O2 (centres unmarked) [Compound 28]	11.7%	35.1%	50.9%	55.4%	47.1%	37.7%	–	–	–	–	–	–	–	–	–	–	–	–
CC(C(N)=O)c1ccc2c(c1)CCc1cccnc1O2 (centres unmarked) [Compound 29, 2-(5,6-dihydrobenzo[b]pyrido[3,2-f]oxepin-8-yl)-propionamide]	18.1%	38.3%	53.5%	53.8%	46.2%	42.9%	–	–	–	–	–	–	–	–	–	–	–	–
CC(C(N)=O)c1ccc2c(c1)CCc1ccccc1S2 (centres unmarked) [Compound 30, 2-(10,11-dihydrodibenzo[b,f]thiepin-2-yl)-propionamide]	21.4%	56.4%	59%	52.8%	38.6%	27.3%	–	–	–	–	–	–	–	–	–	–	–	–
O=C(O)c1ccccc1Nc1cccc(C(F)(F)F)c1 [Flufenamic acid, reference compound]	6.8%	25.9%	26.2%	25.3%	16%	10.6%	-2.9%	23.9%	26.8%	29.5%	23.8%	15.4%	–	–	–	–	–	–
COc1ccc2c(c1)c(CC(=O)O)c(C)n2C(=O)c1ccc(Cl)cc1 [Indomethacin, reference compound]	38.3%	51.7%	59.2%	58.4%	48.7%	41%	64.4%	59.8%	52.1%	63.8%	54.4%	50.3%	21.6%	39.6%	29.9%	36.4%	28.9%	28.7%
CCCCC1C(=O)N(c2ccccc2)N(c2ccccc2)C1=O [Phenyl butazone, reference compound]	–	22.7%	21.1%	22.2%	13.1%	13.6%	12.4%	23.7%	27.4%	20%	14.4%	8.6%	–	–	–	–	–	–
